Where a SMILES comes first, the peptide text is derived from it. [ ]: non-standard residue; d: D form. Cya = N[C@@H](CS(=O)(=O)O)C(=O)O
Columns and labels:
[1] = Intravenous infusion to dogs, toxicity; assay type: in vivo; details: 1.0 mg/kg, 5.0 mg/kg and 8.0 mg/kg
Protocol: The peptides disclosed herein may be administered at any effective dosages, as a single dose or multiple doses, and by any suitable routes of administration. For some systemic treatments, administration by injection or intravenous infusion may be preferable. […] Accordingly, in at least some applications, risuteganib may be administered, for example, by intravenous infusion at a dosage ranging from 1 mg/kg to 8 mg/kg. Other dosage levels and other routes of administration may also be suitable and effective.

[2] = system: Primary human immune cells (PBMC); assay: RNA-seq gene expression in primary human immune cells after risuteganib; assay type: cell-based; details: 100 μM, 8 hours
Protocol: Purpose: In this study, RNA-seq was used to unbiasedly identify the genes regulated by risuteganib exposure in primary human immune cells. Analysis of the specific subset of genes regulated by risuteganib enables identification of biological processes and pathways modulated by the oligopeptide Methods: Primary human immune cells (PBMC) were obtained from a single human donor. The cells were separated into two groups: vehicle or 100 μM risuteganib treatment for 8 hours. After exposure, cells were collected and their total RNA isolated for RNA-seq. The generated reads were then aligned to human reference genome/transcriptome and gene expression quantified for differential expression analysis and fold change calculation. The list of regulated genes was then used to identify biological processes and pathways that are regulated after Risuteganib exposure compared to vehicle control.

## C[C@@H](O)[C@H](NC(=O)[C@H](CS(=O)(=O)O)NC(=O)CNC(=O)[C@H](CCCNC(=N)N)NC(=O)CN)C(=O)N1CCC[C@H]1C(=O)O [Risuteganib, Glycyl-L-arginylglycyl-3-sulfo-L-alanyl-L-threonyl-L-proline] (H-GRG[Cya]TP-OH)
[1]
  toxicity or side effects: without significant toxicity or side effects
[2]
  ADAM8 Mean Expression Rate (Normalized as Fraction Control): 0.9708
  ADGRB1 Mean Expression Rate (Normalized as Fraction Control): 0.8444
  ADGRE2 Mean Expression Rate (Normalized as Fraction Control): 0.923
  ADGRG3 Mean Expression Rate (Normalized as Fraction Control): 0.8381
  AGER Mean Expression Rate (Normalized as Fraction Control): 0.9136
  AKIRIN2 Mean Expression Rate (Normalized as Fraction Control): 0.9697
  ALDH3B1 Mean Expression Rate (Normalized as Fraction Control): 0.8912
  ANPEP Mean Expression Rate (Normalized as Fraction Control): 0.9082
  ARRB2 Mean Expression Rate (Normalized as Fraction Control): 0.9014
  ARSA Mean Expression Rate (Normalized as Fraction Control): 0.9239
  ATP6V0A1 Mean Expression Rate (Normalized as Fraction Control): 0.9432
  BAG6 Mean Expression Rate (Normalized as Fraction Control): 0.9522
  BCL3 Mean Expression Rate (Normalized as Fraction Control): 0.8918
  BRI3 Mean Expression Rate (Normalized as Fraction Control): 0.9397
  CCL2 Mean Expression Rate (Normalized as Fraction Control): 0.9143
  CCL3L1 Mean Expression Rate (Normalized as Fraction Control): 0.8739
  CCL4L2 Mean Expression Rate (Normalized as Fraction Control): 0.9389
  CCL4 Mean Expression Rate (Normalized as Fraction Control): 0.9605
  CCL22 Mean Expression Rate (Normalized as Fraction Control): 0.9197
  CD14 Mean Expression Rate (Normalized as Fraction Control): 0.8899
  CD63 Mean Expression Rate (Normalized as Fraction Control): 0.9487
  CD300A Mean Expression Rate (Normalized as Fraction Control): 0.9137
  CDC37 Mean Expression Rate (Normalized as Fraction Control): 0.935
  CEBPB Mean Expression Rate (Normalized as Fraction Control): 0.8752
  CKAP4 Mean Expression Rate (Normalized as Fraction Control): 0.9133
  CLCF1 Mean Expression Rate (Normalized as Fraction Control): 0.8975
  CSF1 Mean Expression Rate (Normalized as Fraction Control): 0.8841
  CSF3 Mean Expression Rate (Normalized as Fraction Control): 0.8615
  CSTB Mean Expression Rate (Normalized as Fraction Control): 0.9649
  CTSA Mean Expression Rate (Normalized as Fraction Control): 0.941
  CTSD Mean Expression Rate (Normalized as Fraction Control): 0.9173
  CXCL1 Mean Expression Rate (Normalized as Fraction Control): 0.9216
  CXCL2 Mean Expression Rate (Normalized as Fraction Control): 0.8524
  CXCL16 Mean Expression Rate (Normalized as Fraction Control): 0.9326
  CYB5R3 Mean Expression Rate (Normalized as Fraction Control): 0.9564
  CYBA Mean Expression Rate (Normalized as Fraction Control): 0.8869
  CYP27B1 Mean Expression Rate (Normalized as Fraction Control): 0.8623
  DGAT1 Mean Expression Rate (Normalized as Fraction Control): 0.9308
  DNAJC5 Mean Expression Rate (Normalized as Fraction Control): 0.969
  DOK3 Mean Expression Rate (Normalized as Fraction Control): 0.8929
  DYSF Mean Expression Rate (Normalized as Fraction Control): 0.8587
  ERCC1 Mean Expression Rate (Normalized as Fraction Control): 0.8784
  FABP5 Mean Expression Rate (Normalized as Fraction Control): 0.8713
  FCER1G Mean Expression Rate (Normalized as Fraction Control): 0.9289
  FCER2 Mean Expression Rate (Normalized as Fraction Control): 0.7686
  FCGRT Mean Expression Rate (Normalized as Fraction Control): 0.8558
  FGR Mean Expression Rate (Normalized as Fraction Control): 0.9222
  FOS Mean Expression Rate (Normalized as Fraction Control): 0.822
  GAA Mean Expression Rate (Normalized as Fraction Control): 0.9121
  GALNS Mean Expression Rate (Normalized as Fraction Control): 0.9356
  GLA Mean Expression Rate (Normalized as Fraction Control): 0.9639
  GPR84 Mean Expression Rate (Normalized as Fraction Control): 0.9231
  GPX1 Mean Expression Rate (Normalized as Fraction Control): 0.9254
  GRN Mean Expression Rate (Normalized as Fraction Control): 0.9221
  HEXIM1 Mean Expression Rate (Normalized as Fraction Control): 0.9653
  HIST2H2BE Mean Expression Rate (Normalized as Fraction Control): 0.8527
  HLA-DPB1 Mean Expression Rate (Normalized as Fraction Control): 0.9295
  HLA-DQB1 Mean Expression Rate (Normalized as Fraction Control): 0.9554
  HLX Mean Expression Rate (Normalized as Fraction Control): 0.9084
  HRAS Mean Expression Rate (Normalized as Fraction Control): 0.9238
  IFI30 Mean Expression Rate (Normalized as Fraction Control): 0.8318
  IGHD Mean Expression Rate (Normalized as Fraction Control): 0.8731
  IGLC2 Mean Expression Rate (Normalized as Fraction Control): 0.8467
  IGLV2-23 Mean Expression Rate (Normalized as Fraction Control): 0.4503
  IL1RN Mean Expression Rate (Normalized as Fraction Control): 0.8469
  IL4R Mean Expression Rate (Normalized as Fraction Control): 0.9748
  IL6 Mean Expression Rate (Normalized as Fraction Control): 0.9281
  IRF5 Mean Expression Rate (Normalized as Fraction Control): 0.9293
  ITGAL Mean Expression Rate (Normalized as Fraction Control): 0.9842
  ITGAM Mean Expression Rate (Normalized as Fraction Control): 0.9473
  ITGAX Mean Expression Rate (Normalized as Fraction Control): 0.8865
  KCNAB2 Mean Expression Rate (Normalized as Fraction Control): 0.9588
  KCNN4 Mean Expression Rate (Normalized as Fraction Control): 0.9127
  LFNG Mean Expression Rate (Normalized as Fraction Control): 0.9734
  LIF Mean Expression Rate (Normalized as Fraction Control): 0.7939

Source: patent US20240382557A1, “INHIBITION OF TUMOR NECROSIS FACTOR, PRO-INFLAMMATORY CYTOKINES AND OTHER INFLAMMATORY RESPONSE MEDIATORS” (Allegro Pharmaceuticals, LLC, priority 2021, published 2024)
